Patent US4016042A, “Substrate for the quantitative determination of enzymes” (Pentapharm A.G., priority 1974, dated 1977)
Counter-ions that a name gives are not always drawn. Non-standard residues stand in square brackets, D forms with d. Residues, ends and D or L forms follow the SMILES beside them. *: point of attachment. Cha = N[C@@H](CC1CCCCC1)C(=O)O; pNA = O=[N+]([O-])c1ccc(N*)cc1; Phg = N[C@H](C(=O)O)c1ccccc1; Tos = Cc1ccc(S(=O)(=O)*)cc1; 4Abz = Nc1ccc(C(=O)O)cc1; βNA = c1ccc2cc(N*)ccc2c1; Cbz = O=C(OCc1ccccc1)*; Bz = O=C(c1ccccc1)*; Ahx = NCCCCCC(=O)O

What was measured:
Assay type in all cases: biochemical
plasma kallikrein = plasma kallikrein (Homo sapiens, UniProt P03952); assay: Activity of plasma kallikrein measured with the substrates at constant substrate and enzyme concentrations; settings: split product
Experimental: (§1) HCl, were used for the quantitative determination of various enzymes in blood plasma. The determination was carried out by taking advantage of the fact that the split product NH2 -R^2 formed by enzymatic hydrolysis of the substrate has a UV spectrum which differs from that of the substrate and is shifted toward higher wave lengths. Thus, N^α-Bz-Pro-Phe-Arg-pNA^.
(§2) The degree of the enzymatic hydrolysis of the substrate, which is proportional to the quantity of p-nitroaniline formed, can be easily determined by spectrophotometric measurement at 405 nm. […] The conditions are practically the same for the other substrates carrying a p-nitroanilino group as a chromogenic group. The spectrophotometric measurement was, therefore, carried out in all cases at 405 nm.

plasmin = plasmin (Homo sapiens, UniProt P00747); assay: Activity of human plasmin measured with the substrates at constant substrate and enzyme concentrations; settings: split product
Experimental: as §1, §2

trypsin = molecular target: T1, trypsin (Bos taurus, UniProt P00760); assay: Splitting by trypsin with liberation of pNA
T1 sequence (P00760 24-246): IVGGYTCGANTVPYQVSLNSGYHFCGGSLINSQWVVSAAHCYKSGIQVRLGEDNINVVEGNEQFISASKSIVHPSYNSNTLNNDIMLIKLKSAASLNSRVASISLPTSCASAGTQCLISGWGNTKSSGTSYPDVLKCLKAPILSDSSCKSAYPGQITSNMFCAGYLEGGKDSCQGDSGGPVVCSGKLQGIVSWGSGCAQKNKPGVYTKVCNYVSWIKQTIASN
Experimental: In a 250 ml three-necked flask 16.0 g (47 mmoles) of Cbo-Arg-OH.HCl, dried over P2 O5 in vacuo, were dissolved in 90 ml of absolute HMPTA in a moisture-free atmosphere at 20° C. To the resulting solution there was first added portionwise a solution of 4.74 g (47 mmoles) of Et3 N in 10 ml of HMPTA and then 16.4 g (100 mmoles) of p-nitrophenylisocyanate (100% excess) at room temperature. The reaction mixture was kept at room temperature for 24 hours, whereupon most of the HMPTA was distilled off in vacuo. The residue was extracted several times with 30% AcOH. The residue was discarded. The combined AcOH extracts were further purified by gel filtration on a "Sephadex G-15" column as described in Example 1, paragraph I (e). […] Elementary analysis and calculation from the empirical formula C20 H25 N6 O5 Cl gave the following values: C = 51.29% (51.67%); H = 5.48% (5.42%); N = 17.92% (18.08%); Cl = 7.50% (7.63%).

Chain of plasma kallikrein (P03952 391-638 limits assumed, species assumed): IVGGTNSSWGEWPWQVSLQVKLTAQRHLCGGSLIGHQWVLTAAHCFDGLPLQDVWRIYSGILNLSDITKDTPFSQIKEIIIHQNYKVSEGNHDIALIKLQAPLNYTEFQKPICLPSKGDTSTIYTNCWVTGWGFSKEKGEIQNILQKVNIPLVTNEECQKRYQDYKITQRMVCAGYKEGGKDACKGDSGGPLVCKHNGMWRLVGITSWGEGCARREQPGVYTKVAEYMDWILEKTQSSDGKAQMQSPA
Chain of plasma kallikrein (P03952 20-390 partner limits assumed, species assumed): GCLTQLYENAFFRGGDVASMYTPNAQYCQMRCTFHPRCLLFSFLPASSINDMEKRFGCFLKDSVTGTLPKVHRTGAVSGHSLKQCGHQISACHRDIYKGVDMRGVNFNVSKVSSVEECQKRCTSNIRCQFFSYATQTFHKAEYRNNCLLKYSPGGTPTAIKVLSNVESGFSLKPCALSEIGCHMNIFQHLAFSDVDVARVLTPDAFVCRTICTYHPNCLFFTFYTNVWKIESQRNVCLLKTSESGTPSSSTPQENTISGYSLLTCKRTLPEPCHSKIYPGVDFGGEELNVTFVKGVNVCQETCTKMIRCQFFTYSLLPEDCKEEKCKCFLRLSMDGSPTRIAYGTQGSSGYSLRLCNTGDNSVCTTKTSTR
Chain of plasmin (P00747 581-810 limits assumed): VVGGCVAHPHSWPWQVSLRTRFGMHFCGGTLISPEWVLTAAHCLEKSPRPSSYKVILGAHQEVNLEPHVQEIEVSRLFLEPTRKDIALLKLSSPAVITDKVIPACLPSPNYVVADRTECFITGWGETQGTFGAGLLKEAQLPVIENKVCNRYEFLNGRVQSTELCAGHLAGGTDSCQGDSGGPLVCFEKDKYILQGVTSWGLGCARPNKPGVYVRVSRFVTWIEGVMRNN
Chain of plasmin (P00747 97-580 partner limits assumed): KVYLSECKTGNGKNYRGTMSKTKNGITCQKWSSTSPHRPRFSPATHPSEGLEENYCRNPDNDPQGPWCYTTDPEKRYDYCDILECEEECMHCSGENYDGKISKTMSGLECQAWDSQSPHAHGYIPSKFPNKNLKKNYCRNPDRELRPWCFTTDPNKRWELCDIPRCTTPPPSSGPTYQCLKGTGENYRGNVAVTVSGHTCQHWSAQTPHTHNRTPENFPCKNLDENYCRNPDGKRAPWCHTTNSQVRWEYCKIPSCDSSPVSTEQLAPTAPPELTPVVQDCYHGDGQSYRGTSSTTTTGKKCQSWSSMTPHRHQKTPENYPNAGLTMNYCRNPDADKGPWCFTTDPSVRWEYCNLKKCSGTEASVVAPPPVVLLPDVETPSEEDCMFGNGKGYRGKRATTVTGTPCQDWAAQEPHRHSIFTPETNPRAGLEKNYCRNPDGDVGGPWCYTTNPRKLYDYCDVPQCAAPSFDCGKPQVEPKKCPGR

Compound | Quantity of p-nitroaniline (pNA), β-naphthylamine (2-NA) or 4-methoxy-β-naphthylamine (4-MeO-2-NA) released within 1 minute by 1 BAEE unit of plasma kallikrein (plasma kallikrein) [nm] | Quantity of p-nitroaniline (pNA), β-naphthylamine (2-NA) or 4-methoxy-β-naphthylamine (4-MeO-2-NA) released within 1 minute by one C unit of human plasmin (plasmin) [nm] | splitting by trypsin (trypsin)
N=C(N)NCCC[C@H](NC(=O)[C@H](Cc1ccccc1)NC(=O)[C@@H]1CCCN1C(=O)c1ccc(N)cc1)C(=O)Nc1ccc([N+](=O)[O-])cc1 [Substrate XII, N^α-4-Aminobenzoyl-Pro-Phe-Arg-pNA. 2HCl] (H-[4Abz]PFR-pNA) | 49.2 | 196.0 | 
N^α -4-Aminomethyl-cyclohexylcarbonyl-Pro-Phe-Arg-pNA.2HCl [Substrate IX] | 65.1 | 600.0 | 
N=C(N)NCCC[C@H](NC(=O)[C@H](Cc1ccccc1)NC(=O)[C@@H]1CCCN1C(=O)CCCCCN)C(=O)Nc1ccc([N+](=O)[O-])cc1 [Substrate VIII, N^α -(ω-Aminocaproyl)-Pro-Phe-Arg-pNA.2HCl] (H-[Ahx]PFR-pNA) | 59.7 | 256.0 | 
N=C(N)NCCC[C@H](NC(=O)[C@H](Cc1ccc(O)cc1)NC(=O)[C@@H]1CCCN1C(=O)c1ccccc1)C(=O)Nc1ccc([N+](=O)[O-])cc1 [Substrate XV, N^α-Bz-Pro-Tyr-Arg-pNA.HCl] (Bz-Pro-Tyr-Arg-pNA) | 71.0 | 73.8 | 
N=C(N)NCCC[C@H](NC(=O)[C@@H](NC(=O)[C@@H]1CCCN1C(=O)c1ccccc1)c1ccccc1)C(=O)Nc1ccc([N+](=O)[O-])cc1 [Substrate XVI, N^α-Bz-Pro-Ph.Gly-Arg-pNA.HCl] (Bz-Pro-[Phg]-Arg-pNA) | 9.1 | 16.2 | 
N=C(N)NCCC[C@H](NC(=O)[C@H](Cc1ccccc1)NC(=O)[C@@H]1CCCN1C(=O)c1ccccc1)C(=O)Nc1ccc2ccccc2c1 [Substrate XVII, N^α-Bz-Pro-Phe-Arg-2-NA^. HCl] (Bz-Pro-Phe-Arg-βNA) | 44.1 | 95.4 | 
N^α -Caproyl-Pro-Phe-Arg-pNA.HCl [Substrate IV] | 108.3 | 100.0 | 
Cc1ccc(C(=O)N2CCC[C@H]2C(=O)N[C@@H](Cc2ccccc2)C(=O)N[C@@H](CCCNC(=N)N)C(=O)Nc2ccc([N+](=O)[O-])cc2)cc1 [Substrate VI, N^α -4-Methyl-Bz-Pro-Phe-Arg-pNA.HCl] | 78.4 | 142.0 | 
N=C(N)NCCC[C@H](NC(=O)[C@H](CC1CCCCC1)NC(=O)[C@@H]1CCCN1C(=O)c1ccccc1)C(=O)Nc1ccc([N+](=O)[O-])cc1 [Substrate XIV, N^α-Bz-Pro-CHA-Arg-pNA.HCl] (Bz-Pro-[Cha]-Arg-pNA) | 64.5 | 116.0 | 
N=C(N)NCCC[C@H](NC(=O)OCc1ccccc1)C(=O)Nc1ccc([N+](=O)[O-])cc1 [XIIIa, Cbo-Arg-pNA.HCl] |  |  | split by trypsin with liberation of pNA
COc1cc(NC(=O)[C@H](CCCNC(=N)N)NC(=O)[C@H](Cc2ccccc2)NC(=O)[C@@H]2CCCN2C(=O)c2ccccc2)cc2ccccc12 [Substrate XVIII, N^α-Bz-Pro-Phe-Arg-4-MeO-2-NA^. HCl] | 39.8 | 79.7 | 
Cc1ccc(S(=O)(=O)N2CCC[C@H]2C(=O)N[C@@H](Cc2ccccc2)C(=O)N[C@@H](CCCNC(=N)N)C(=O)Nc2ccc([N+](=O)[O-])cc2)cc1 [Substrate X, N^α-Tos-Pro-Phe-Arg-pNA.HCl] (Tos-Pro-Phe-Arg-pNA) | 88.5 | 80.2 | 
N=C(N)NCCC[C@H](NC(=O)[C@H](Cc1ccccc1)NC(=O)[C@@H]1CCCN1C(=O)OCc1ccccc1)C(=O)Nc1ccc([N+](=O)[O-])cc1 [Substrate XIII, N^α-Cbo-Pro-Phe-Arg-pNA.HCl] (Cbz-Pro-Phe-Arg-pNA) | 109.9 | 176.1 | 
CC(=O)N1CCC[C@H]1C(=O)N[C@@H](Cc1ccccc1)C(=O)N[C@@H](CCCNC(=N)N)C(=O)Nc1ccc([N+](=O)[O-])cc1 [Substrate III, N^α -Ac-Pro-Phe-Arg-pNA.HCl] (Ac-Pro-Phe-Arg-pNA) | 42.3 | 49.1 | 
N=C(N)NCCC[C@H](NC(=O)[C@H](Cc1ccccc1)NC(=O)[C@@H]1CCCN1C(=O)C1CCCCC1)C(=O)Nc1ccc([N+](=O)[O-])cc1 [Substrate V, N^α -cyclohexylcarbonyl-Pro-Phe-Arg-pNA.HCl] | 154.7 | 158.0 | 
N=C(N)NCCC[C@H](NC(=O)[C@H](Cc1ccccc1)NC(=O)[C@@H]1CCCN1)C(=O)Nc1ccc([N+](=O)[O-])cc1 [Substrate II, H-Pro-Phe-Arg-pNA.2HCl] (H-Pro-Phe-Arg-pNA) | 28.6 | 16.2 | 
N=C(N)NCCC[C@H](NC(=O)[C@H](Cc1ccccc1)NC(=O)[C@@H]1CCCN1C(=O)Cc1ccc(N)cc1)C(=O)Nc1ccc([N+](=O)[O-])cc1 [Substrate XI, N^α-4-Aminophenyl-acetyl-Pro-Phe-Arg-pNA. 2HCl] | 72.1 | 230.0 | 
